Test results reported in ChEMBL document CHEMBL1125330, “N-substituted pyrazino[2,3-c][1,2,6]thiadiazine 2,2-dioxides. A new class of diuretics” (J Med Chem, 1992).

Species: Rattus norvegicus
Assay: Mean sodium excretion in rats (Control/Drug treatment value); value 0.42/0.65
Type: ADME, organism-based
Conditions: in vivo

Na: 1.5
Structure (SMILES): CCCc1nc2c(nc1C)C(N)=NS(=O)(=O)N2CC
